Test results published in PubChem BioAssay AID1918954 (Molecular Pharmacology Branch, DTP, NCI, 2023).

Tested on: MDA-MB-468 complex spheroids with HUVEC/MSC, viability
Assay: Anticancer human tumor MDA-MB-468 cell line growth inhibition;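 also: spheroids exposed to agents for seven days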;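 as to viability, T/C: 100% = DMSO vehicle control viability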
Settings: for IC50: curve of first compound; for viability, T/C: stronger effect = lower value
Method in brief: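 Multicellular complex spheroids of tumor cells with human endothelial cells (HUVEC) and mesenchymal stem cells; the LSD1 inhibitor iadademstat was combined with standard-of-care or investigational agents. Top concentration at or near clinical Cmax, half-log dilutions; final DMSO ≤0.25%.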

[1] = second compound 0.1 µM, first compound 0.000316 µM
[2] = second compound 0.1 µM, first compound 0.001 µM
[3] = second compound 0.1 µM, first compound 0.00316 µM
[4] = second compound 0.1 µM, first compound 0.01 µM
[5] = second compound 0.1 µM, first compound 0.0316 µM
[6] = second compound 0.1 µM, first compound 0.1 µM
[7] = second compound 0.316 µM, first compound 0.000316 µM
[8] = second compound 0.316 µM, first compound 0.001 µM
[9] = second compound 0.316 µM, first compound 0.00316 µM
[10] = second compound 0.316 µM, first compound 0.01 µM
[11] = second compound 0.316 µM, first compound 0.0316 µM
[12] = second compound 0.316 µM, first compound 0.1 µM
[13] = second compound 1 µM, first compound 0.000316 µM
[14] = second compound 1 µM, first compound 0.001 µM
[15] = second compound 1 µM, first compound 0.00316 µM
[16] = second compound 1 µM, first compound 0.01 µM
[17] = second compound 1 µM, first compound 0.0316 µM
[18] = second compound 1 µM, first compound 0.1 µM
[19] = second compound 3.16 µM, first compound 0.000316 µM
[20] = second compound 3.16 µM, first compound 0.001 µM
[21] = second compound 3.16 µM, first compound 0.00316 µM
[22] = second compound 3.16 µM, first compound 0.01 µM
[23] = second compound 3.16 µM, first compound 0.0316 µM
[24] = second compound 3.16 µM, first compound 0.1 µM
[25] = second compound 10 µM, first compound 0.000316 µM
[26] = second compound 10 µM, first compound 0.001 µM
[27] = second compound 10 µM, first compound 0.00316 µM
[28] = second compound 10 µM, first compound 0.01 µM
[29] = second compound 10 µM, first compound 0.0316 µM
[30] = second compound 10 µM, first compound 0.1 µM
[31] = second compound 0.1 µM, first compound 0.00949 µM
[32] = second compound 0.1 µM, first compound 0.03 µM
[33] = second compound 0.1 µM, first compound 0.0949 µM
[34] = second compound 0.1 µM, first compound 0.3 µM
[35] = second compound 0.1 µM, first compound 0.949 µM
[36] = second compound 0.1 µM, first compound 3 µM
[37] = second compound 0.316 µM, first compound 0.00949 µM
[38] = second compound 0.316 µM, first compound 0.03 µM
[39] = second compound 0.316 µM, first compound 0.0949 µM
[40] = second compound 0.316 µM, first compound 0.3 µM
[41] = second compound 0.316 µM, first compound 0.949 µM
[42] = second compound 0.316 µM, first compound 3 µM
[43] = second compound 1 µM, first compound 0.00949 µM
[44] = second compound 1 µM, first compound 0.03 µM
[45] = second compound 1 µM, first compound 0.0949 µM
[46] = second compound 1 µM, first compound 0.3 µM
[47] = second compound 1 µM, first compound 0.949 µM
[48] = second compound 1 µM, first compound 3 µM
[49] = second compound 3.16 µM, first compound 0.00949 µM
[50] = second compound 3.16 µM, first compound 0.03 µM
[51] = second compound 3.16 µM, first compound 0.0949 µM
[52] = second compound 3.16 µM, first compound 0.3 µM
[53] = second compound 3.16 µM, first compound 0.949 µM
[54] = second compound 3.16 µM, first compound 3 µM
[55] = second compound 10 µM, first compound 0.00949 µM
[56] = second compound 10 µM, first compound 0.03 µM
[57] = second compound 10 µM, first compound 0.0949 µM
[58] = second compound 10 µM, first compound 0.3 µM
[59] = second compound 10 µM, first compound 0.949 µM
[60] = second compound 10 µM, first compound 3 µM

With `CC(C)CC(NC(=O)C(Cc1ccccc1)NC(=O)c1cnccn1)B(O)O` (stereo not given) + NC1CC1c1ccc(-c2cccc(O)c2)cc1 the IC50 (second compound 0.1 µM) was < 0.000316 µM, the IC50 (second compound 0.316 µM) was < 0.000316 µM and the IC50 (second compound 1 µM) was < 0.000316 µM. For the same compound, the IC50 (second compound 3.16 µM) was < 0.000316 µM, the IC50 (second compound 10 µM) was < 0.000316 µM and the viability, T/C [1] was 5.95%. For the same compound, the viability, T/C [2] was 0.09%, the viability, T/C [3] was 0.06% and the viability, T/C [4] was 0.05%. For the same compound, the viability, T/C [5] was 0.08%, the viability, T/C [6] was 0.18% and the viability, T/C [7] was 6.43%. It also gave a viability, T/C [8] of 0.09%, a viability, T/C [9] of 0.05% and a viability, T/C [10] of 0.07%. It also gave a viability, T/C [11] of 0.08%, a viability, T/C [12] of 0.17% and a viability, T/C [13] of 5.88%. It also gave a viability, T/C [14] of 0.08%, a viability, T/C [15] of 0.05% and a viability, T/C [16] of 0.04%. For the same compound, the viability, T/C [17] was 0.06%, the viability, T/C [18] was 0.17% and the viability, T/C [19] was 5.66%. It also gave a viability, T/C [20] of 0.06%, a viability, T/C [21] of 0.07% and a viability, T/C [22] of 0.04%. The viability, T/C [23] was 0.14%, the viability, T/C [24] was 0.15% and the viability, T/C [25] was 3.55%. It also gave a viability, T/C [26] of 0.16%, a viability, T/C [27] of 0.12% and a viability, T/C [28] of 0.12%. It also gave a viability, T/C [29] of 0.14% and a viability, T/C [30] of 0.2%.
Work on `CC(C)CC(NC(=O)CNC(=O)c1cc(Cl)ccc1Cl)B1OC(=O)CC(CC(=O)O)(C(=O)O)O1` (stereo not given) + NC1CC1c1ccc(-c2cccc(O)c2)cc1 yielded an IC50 (second compound 0.1 µM) of 0.00257 µM, an IC50 (second compound 0.316 µM) of 0.00249 µM and an IC50 (second compound 1 µM) of 0.00274 µM. The IC50 (second compound 3.16 µM) was 0.00232 µM, the IC50 (second compound 10 µM) was 0.00154 µM and the viability, T/C [1] was 111%. For the same compound, the viability, T/C [2] was 106%, the viability, T/C [3] was 37.6% and the viability, T/C [4] was 4.72%. For the same compound, the viability, T/C [5] was 0.18%, the viability, T/C [6] was 0.16% and the viability, T/C [7] was 118%. It also gave a viability, T/C [8] of 94.2%, a viability, T/C [9] of 39% and a viability, T/C [10] of 5.32%. For the same compound, the viability, T/C [11] was 0.16%, the viability, T/C [12] was 0.15% and the viability, T/C [13] was 105%. For the same compound, the viability, T/C [14] was 109%, the viability, T/C [15] was 41.8% and the viability, T/C [16] was 5.14%. It also gave a viability, T/C [17] of 0.2%, a viability, T/C [18] of 0.14% and a viability, T/C [19] of 106%. The viability, T/C [20] was 100%, the viability, T/C [21] was 31.4% and the viability, T/C [22] was 5.19%. It also gave a viability, T/C [23] of 0.17%, a viability, T/C [24] of 0.14% and a viability, T/C [25] of 71.4%. For the same compound, the viability, T/C [26] was 62.5%, the viability, T/C [27] was 28.9% and the viability, T/C [28] was 4%. For the same compound, the viability, T/C [29] was 0.22% and the viability, T/C [30] was 0.24%.
Compound `Nc1ccccc1NC(=O)c1ccc(CNC(=O)OCc2cccnc2)cc1` + NC1CC1c1ccc(-c2cccc(O)c2)cc1 has an IC50 (second compound 0.1 µM) of 0.0663 µM, an IC50 (second compound 0.316 µM) of 0.0618 µM and an IC50 (second compound 1 µM) of 0.0568 µM. It also gave an IC50 (second compound 3.16 µM) of 0.0605 µM, an IC50 (second compound 10 µM) of 0.0482 µM and a viability, T/C [31] of 101%. For the same compound, the viability, T/C [32] was 90.5%, the viability, T/C [33] was 31.8% and the viability, T/C [34] was 2.33%. For the same compound, the viability, T/C [35] was 0.21%, the viability, T/C [36] was 0.17% and the viability, T/C [37] was 90.7%. It also gave a viability, T/C [38] of 86.1%, a viability, T/C [39] of 28.6% and a viability, T/C [40] of 2.63%. The viability, T/C [41] was 0.2%, the viability, T/C [42] was 0.15% and the viability, T/C [43] was 108%. It also gave a viability, T/C [44] of 78.6%, a viability, T/C [45] of 27.5% and a viability, T/C [46] of 2.4%. It also gave a viability, T/C [47] of 0.19%, a viability, T/C [48] of 0.13% and a viability, T/C [49] of 92%. It also gave a viability, T/C [50] of 88%, a viability, T/C [51] of 25.7% and a viability, T/C [52] of 2.56%. For the same compound, the viability, T/C [53] was 0.16%, the viability, T/C [54] was 0.14% and the viability, T/C [55] was 72.1%. The viability, T/C [56] was 68.1%, the viability, T/C [57] was 24.5% and the viability, T/C [58] was 2.72%. It also gave a viability, T/C [59] of 0.24% and a viability, T/C [60] of 0.2%.
With `O=C(C=Cc1cccc(S(=O)(=O)Nc2ccccc2)c1)NO` + NC1CC1c1ccc(-c2cccc(O)c2)cc1 the IC50 (second compound 0.1 µM) was 0.0599 µM, the IC50 (second compound 0.316 µM) was 0.0442 µM and the IC50 (second compound 1 µM) was 0.0533 µM. For the same compound, the IC50 (second compound 3.16 µM) was 0.0498 µM, the IC50 (second compound 10 µM) was 0.0262 µM and the viability, T/C [31] was 88.7%. The viability, T/C [32] was 74.8%, the viability, T/C [33] was 25.8% and the viability, T/C [34] was 2.15%. It also gave a viability, T/C [35] of 0.17%, a viability, T/C [36] of 106% and a viability, T/C [37] of 96.3%. For the same compound, the viability, T/C [38] was 59.3%, the viability, T/C [39] was 23.1% and the viability, T/C [40] was 2.07%. For the same compound, the viability, T/C [41] was 0.17%, the viability, T/C [42] was 101% and the viability, T/C [43] was 92.9%. The viability, T/C [44] was 70.3%, the viability, T/C [45] was 25.5% and the viability, T/C [46] was 2.36%. The viability, T/C [47] was 0.14%, the viability, T/C [48] was 90.9% and the viability, T/C [49] was 83.1%. For the same compound, the viability, T/C [50] was 64.5%, the viability, T/C [51] was 23% and the viability, T/C [52] was 2.23%. It also gave a viability, T/C [53] of 0.16%, a viability, T/C [54] of 101% and a viability, T/C [55] of 67.7%. It also gave a viability, T/C [56] of 47.7%, a viability, T/C [57] of 17.7% and a viability, T/C [58] of 1.86%. The viability, T/C [59] was 0.19% and the viability, T/C [60] was 79.1%.
